Laboratory results as given in US5736556A, “Tropane-2-aldoxime derivatives as nevro transmitter reuptake inhibitors” (NeuroSearch A/S, priority 1994, dated 1998).
Structures can show the parent of a compound that is named as a salt.

What was measured:
[1] = biological target: T1, dopamine transporter (^3 H-dopamine uptake) (Rattus norvegicus, UniProt P23977); assay: In vitro inhibition of ^3 H-dopamine (^3 H-DA) uptake in striatal synaptosomes; format: biochemical, rat (male Wistar); settings: ^3 H-DA 1 nM, 25 min at 37° C.
T1 construct: Corpi striati from male Wistar rats (150-200 g) are homogenized; from tissue; host or cells: P2 synaptosomes of corpus striatum, male Wistar rats
Excerpt: (§1) The compounds of the invention have also been tested for their ability to inhibit reuptake of dopamine(DA) noradrenalin(NA) and serotonin(5-HT) in synaptosomes.
(§2) Specific neurotransmitter transporters/uptake sites on nerve terminals presumably function to terminate neuronal signaling by removing the neurotransmitters dopamine, noradrenaline and serotonin, respectively, from the synaptic cleft. The activity of the transporter integral proteins can be measured in vitro by synaptosomal uptake of ^3 H-dopamine, ^3 H-noradrenaline and ^3 H-serotonine, respectively.
In vitro inhibition of ^3 H-dopamine (^3 H-DA) uptake in striatal synaptosomes
Tissue preparations: Preparations are performed at 0°-4° C. unless otherwise indicated. Corpi striati from male Wistar rats (150-200 g) are homogenized for 5-10 sec in 100 volumes of ice-cold 0.32M sucrose containing 1 mM pargyline using an Ultra-Turrax homogenizer. Monoamine oxidase activity will be inhibited in the presence of pargyline. The homogenate is centrifuged at 1000×g for 10 min. The resulting supermatant is then centrifuged at 27,000×g for 50 min and the supernatant is discarded. The pellet (P2) is resuspended in oxygenated (equilibrated with an atmosphere of 96% O2 : 4% CO2 for at least 30 min) Krebs-Ringer incubation buffer (8000 ml per g of original tissue) at pH 7.2 containing 122 mM NaCl, 0.16 mM EDTA, 4.8 mM KCl, 12.7 mM Na2 HPO4, 3.0 mM NaH2 PO4, 1.2 mM MgSO4, 1 mM CaCl2, 10 mM glucose and 1 mM ascorbic acid.
(§3) Assay: Aliquots of 4.0 ml tissue suspension are added to 100 μl of test solution and 100 μl of ^3 H-DA (1 nM, final concentration), mixed and incubated for 25 min at 37° C. Non-specific uptake is determined using benztropine (10 μM, final concentration). After incubation the samples are poured directly onto Whatman GF/C glass fibre filters under suction. […] The amount of radioactivity on the filters is determined by conventional liquid scintillation counting. Specific uptake is calculated as the difference between total uptake and non-specific uptake. […]

[2] = biological target: T2, ^3 H-5-HT (serotonin) uptake (serotonin transporter) (Rattus norvegicus, UniProt P31652); assay: In vitro inhibition of ^3 H-5-hydroxytryptamine (^3 H-5-HT, serotonin) uptake in cortical synaptosomes; format: biochemical, rat (male Wistar); settings: ^3 H-5-HT 1 nM, 30 min at 37° C.
T2 construct: Cerebral cortices from male Wistar rats (150-200 g) are homogenized; from tissue; host or cells: P2 synaptosomes of cerebral cortex, male Wistar rats
Excerpt: as §1, §2
In vitro inhibition of ^3 H-5-hydroxytryptamine ^3 H-5-HT, serotonin) uptake in cortical synaptosomes
Tissue preparation: Preparations are performed at 0°-4° C. unless otherwise indicated. Cerebral cortices from male Wistar rats (150-200 g) are homogenized for 5-10 sec in 100 volumes of ice-cold 0.32M sucrose containing 1 mM pargyline using an Ultra-Turrax homogenizer. […]
as §3, with “H-5-HT” for “H-DA”, “30” for “25”, “citalopram (1” for “benztropine (10”, “concentration).” for “concentration). After incubation the samples are poured directly onto Whatman GF/C glass fibre filters under suction.”

dopamine transporter = dopamine transporter (Mus musculus, UniProt Q61327); assay: In vivo inhibition of ^3 H-WIN 35428 binding (striatum); parameters: from tissue; host or cells: striatum of living female NMRI mice; species or system mice (female NMRI); settings: ip, mice, inhibition of specific ^3 H-WIN 35428 binding in striatum
Experimental: All test substances used are solutions or suspensions prepared in 10% TWEEN 80. Groups of three female NMRI mice (25 g) are injected i.p. with the test substance. […] Tissues are weighed and dissolved for 36 h with 1 ml 2% sodium-laurylsulfat. The solubilized tissue is then added 2 ml of scintillation cocktail, and the amount of radioactivity per mg of tissue is counted by conventional liquid scintillation counting. Groups of untreated mice serves as controls.
The ED50 value is determined from dose response curves.
ED50 =(administered dose, mg/kg)×1/(C0 /Cx -1), where C0 is specific binding in controls and Cx is the specific binding in mice treated with test substance.

T2 sequence (P31652 whole entry): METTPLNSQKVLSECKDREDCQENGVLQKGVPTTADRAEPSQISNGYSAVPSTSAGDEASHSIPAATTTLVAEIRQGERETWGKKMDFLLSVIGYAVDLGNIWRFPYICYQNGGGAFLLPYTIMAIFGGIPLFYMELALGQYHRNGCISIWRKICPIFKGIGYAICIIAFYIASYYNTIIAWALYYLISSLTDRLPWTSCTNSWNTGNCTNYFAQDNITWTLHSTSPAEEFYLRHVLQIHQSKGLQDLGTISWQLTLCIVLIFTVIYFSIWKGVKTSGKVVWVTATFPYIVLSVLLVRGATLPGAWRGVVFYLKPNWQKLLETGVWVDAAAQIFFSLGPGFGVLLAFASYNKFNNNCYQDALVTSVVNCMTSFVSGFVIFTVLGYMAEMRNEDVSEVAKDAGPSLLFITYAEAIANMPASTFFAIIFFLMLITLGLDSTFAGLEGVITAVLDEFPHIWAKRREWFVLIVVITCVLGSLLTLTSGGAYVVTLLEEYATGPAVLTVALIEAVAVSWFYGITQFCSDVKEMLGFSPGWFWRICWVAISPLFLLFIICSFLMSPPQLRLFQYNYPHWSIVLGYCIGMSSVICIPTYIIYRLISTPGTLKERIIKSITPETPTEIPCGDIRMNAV
T1 sequence (P23977 whole entry): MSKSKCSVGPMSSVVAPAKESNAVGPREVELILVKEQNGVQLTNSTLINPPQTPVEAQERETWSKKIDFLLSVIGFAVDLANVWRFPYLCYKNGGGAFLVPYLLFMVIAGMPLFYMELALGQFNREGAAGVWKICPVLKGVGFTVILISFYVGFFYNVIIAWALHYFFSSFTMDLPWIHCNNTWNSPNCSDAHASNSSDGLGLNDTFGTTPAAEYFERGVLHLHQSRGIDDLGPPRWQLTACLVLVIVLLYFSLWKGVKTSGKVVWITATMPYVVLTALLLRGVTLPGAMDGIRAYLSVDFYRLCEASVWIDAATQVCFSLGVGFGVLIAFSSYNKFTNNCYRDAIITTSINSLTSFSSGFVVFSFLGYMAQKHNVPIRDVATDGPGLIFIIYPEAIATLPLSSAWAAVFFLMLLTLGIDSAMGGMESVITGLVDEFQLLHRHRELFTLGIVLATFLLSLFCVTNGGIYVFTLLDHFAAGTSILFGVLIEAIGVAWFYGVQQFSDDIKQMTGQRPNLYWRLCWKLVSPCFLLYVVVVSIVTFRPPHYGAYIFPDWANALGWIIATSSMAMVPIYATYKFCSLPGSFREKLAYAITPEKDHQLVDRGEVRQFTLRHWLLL
Chain of dopamine transporter (Q61327 whole entry): as the sequence (P23977 whole entry) above, with S21P, A57V, A194S, H600R, L619V counted along it

| SMILES | IC50 [1] | IC50 [2] | ED50 (dopamine transporter) |
| --- | --- | --- | --- |
| CON=C[C@@H]1[C@@H](c2ccc(Cl)c(Cl)c2)C[C@@H]2CC[C@H]1N2C [(1R,2R,3S)-3-(3,4-dichlorophenyl)-tropane-2-O-methyl-aldoxime, H2 SO4] | 3 nM | 13 nM | 0.9 mg/kg |
| CON=C[C@@H]1[C@@H](c2ccc(Cl)c(Cl)c2)C[C@@H]2CC[C@H]1N2 [(1R,2R,3S)-N-Normethyl-3-(3,4-dichlorophenyl)tropane-2-O-methyl-aldoxime, hydrochloride] | 2 nM | 1.7 nM | 1.4 mg/kg |
